Data on twelve compounds can be found in patent US20260102428A1, “COMPOSITIONS AND METHODS FOR THE INHIBITION OF METHICILLIN RESISTANT STAPHYLOCOCCUS AUREUS” (priority 2022, published 2026).

Values joined by “and” are separate entries in the source; they are usually repeats but may differ in a detail not shown here. Equal values may be shown once. Where a name gives a salt, the structure may show the parent alone. Bridge positions count the residues as written; N and C are the ends. Square brackets hold non-standard residues; d marks the D form. Peptide text beside a SMILES is read from it. * marks the point of attachment. Ileψ(thiazoline)Cys = CC[C@H](C)[C@H](N)C1=N[C@H](C(=O)*)CS1; dOrn = NCCC[C@@H](N)C(=O)O

For series [1] the following is noted: reported values; cited from earlier work.
In another series the test system is MRSA strain USA300-LAC. Description: Zn(II)/Cu-dependent antibiotic screening of the Selleckchem bioactives library (resazurin growth readout). The format is cell-based, Staphylococcus aureus. The note with it: compound 10 μM, hit = growth reduced by at least 50%; for Activity class in Zn-dependent screening: with vs without 25 μM ZnSO4, 1×RPMI 1640; for Activity class in Cu-dependent screening: with vs without 25 μM CuSO4, 1×RPMI 1640.

A short description of series [2]: Binding constant determination by UV/Vis-absorption titration. The procedure:
Binding constants were determined using UV/Vis-absorption spectroscopy by titrating AVB with Cu(I), Cu(II), and Zn(II). Briefly, 1 mM AVB in 100% anhydrous DMSO was titrated in HEPES (4-(2-hydroxyethyl)-1-piperazineethanesulfonic acid) buffer (pH=7.2-7.4) with 800 μM CuBr, CuSO4, or ZnSO4 at the following concentrations: 0 μM, 25 μM, 50 μM, 75 μM, 100 μM, and 150 μM. Once the gradient of solutions was prepared, full spectrum UV/Vis-absorption spectroscopy was performed to detect characteristic spectral changes that occur as a consequence of metal cation binding. Binding constants were calculated by importing the spectra of individual titrations with each metal into the UV 1:1 Bindfit program.

The test system of series [3] is USA300-LAC. Description: Minimal inhibitory concentration by dose-response curves (A600). The format is cell-based, Staphylococcus aureus. The note with it: for Antibacterial activity (MIC) without metal: 1×RPMI 1640, no added metal.
The subject of a further series is human cells. Description: Eukaryotic toxicity assays, overall statement. The format is cell-based. The following applies: 0.4-30 μM ± 15 μM Zn, 24 hours.
Series [4] has as its system USA300-LAC. The following applies: ZnSO4 titrated against compound, 1×RPMI 1640.
A further series deals with S. aureus JE2. The format is cell-based, Staphylococcus aureus. The note with it: 0.25-4× MIC, daily passage 1:100.
Series [5] relates to clinical multidrug-resistant MRSA isolates. Description: Minimal inhibitory concentration against clinical isolates (dose-response curves).
Protocol: Growth was determined after 20 h of incubation at 37° C. using A600 measurements as a readout. Percentage growth was calculated by normalizing the A600 measurements relative to that of the compound-untreated control of each metal condition. Data represent the mean±SEM (n=3 biological replicates, 3 technical replicates each). […] Data represent the mean±SEM (n=3 biological replicates, 3 technical replicates each).
All S. aureus strains utilized in this study were routinely cultured in Mueller-Hinton medium at 37° C. shaking at 180 rpm prior to transfer into experiment-specific media. […] Lastly, clinical multi-drug resistant MRSA strains were isolated, characterized for clinical drug resistance, de-identified, and obtained from UAB Laboratory Medicine.
The minimal inhibitory concentration (MIC) of the tested compounds was determined using dose-response curves as previously described. Briefly, each strain was cultured to mid-exponential phase in MH medium, as determined by OD600 measurement. S. aureus cultures were then normalized to an OD600 of 0.005 for transfer into the assay plates. Each strain was treated with compounds serially titrated in the assay medium in 96-well flat-bottom plastic plates with or without either CuSO4 or ZnSO4. Compound-untreated samples for each metal condition were used as negative controls. S. aureus were treated for 18-20 hours at 37° C. and 5% CO2. Following the treatment period, bacterial growth was determined by measuring the absorbance of each well at 600 nm using a Biotek Cytation 3 plate reader. Measurements were then background adjusted and normalized to either the untreated control or the metal only control.
The subject of series [6] is erythromycin-resistant group A Streptococcus, methicillin-resistant Staphylococcus aureus, and vancomycin-resistant Enterococcus. The note with it: cited from earlier work.
Where [7] appears, read: CuBr, HEPES buffer pH 7.2-7.4, UV 1:1 Bindfit.
The mark [8] stands for this setting: CuSO4, HEPES buffer pH 7.2-7.4, UV 1:1 Bindfit.
Where [9] appears, read: ZnSO4, HEPES buffer pH 7.2-7.4, UV 1:1 Bindfit.

With `O=C(O)CN(CCN(CC(=O)O)CC(=O)O)CC(=O)O` [EDTA, 2,2′,2″,2′″-(Ethane-1,2-diyldinitrilo)tetraacetic acid], the “KD of high-affinity metal chelators” value in series [1] is given as “picomolar to femtomolar range”.

Take `Clc1ccccc1C(c1ccccc1)(c1ccccc1)n1ccnc1` [clotrimazole]: in the series with MRSA strain USA300-LAC, the “Activity class in Zn-dependent screening” value is on record as “Zn-activated”.

For the compound `Clc1ccc(C(Cn2ccnc2)OCc2ccsc2Cl)c(Cl)c1` (stereo not shown) [tioconazole], in the series with MRSA strain USA300-LAC, the “Activity class in Zn-dependent screening” value is recorded as “Zn-activated”.

Take `CC/C(=C(\c1ccccc1)c1ccc(OCCN(C)C)cc1)c1ccccc1` [tamoxifen]: in the series with MRSA strain USA300-LAC, the “Activity class in Zn-dependent screening” value is listed as “Zn-activated”.

Take `COc1ccc(C(=O)CC(=O)c2ccc(C(C)(C)C)cc2)cc1` [Avobenzone, 1-(4-tert-butylphenyl)-3-(4-methoxyphenyl)propane-1,3-dione]: the “Activity class in Cu-dependent screening” value in the series with MRSA strain USA300-LAC is “activated by both Zn and Cu”. The “Activity class in Zn-dependent screening” value in the series with MRSA strain USA300-LAC is “activated by both Zn and Cu”. Further, the KA is 6900 M⁻¹ in series [2] (setting [7]), 225,279 M^−1 in series [2] (setting [8]) and 168,982 M^−1 in series [2] (setting [9]). The Kd in [2] (setting [7]) turned out to be 115 µM; in [2] (setting [8]), 4.43 µM; in series [2] (CuSO4, HEPES buffer pH 7.2-7.4, UV 1:1 Bindfit, listed as AVB), 4.4 µM; in series [2] (setting [9]), 5.92 µM; in series [2] (ZnSO4, HEPES buffer pH 7.2-7.4, UV 1:1 Bindfit, listed as AVB) it was 5.9 µM. Also, the “Antibacterial activity (MIC) without metal” value in the series on USA300-LAC [3] is “no antibacterial activity”. In the series on human cells, the Cytotoxicity entry was “no relevant cytotoxicity”. Also, the “Zn concentration required for full activity / MIC” value in the series on USA300-LAC [4] was in the range of 1.25 to 10 µM.

On to `CO[C@H]1/C=C/O[C@@]2(C)Oc3c(C)c(O)c4c(O)c(c(/C=N/N5CCN(C)CC5)c(O)c4c3C2=O)NC(=O)/C(C)=C\C=C\[C@H](C)[C@H](O)[C@@H](C)[C@@H](O)[C@@H](C)[C@H](OC(C)=O)[C@@H]1C` [Rifampicin], for which the “Day from which resistant clones could be isolated” value in the series on S. aureus JE2 amounted to 5 days.

On to bacitracin-Zn, for which the “MIC of bacitracin-Zn relative to that of AVB-Zn” value in the series with USA300-LAC [3] (with 25 μM ZnSO4) is “four-fold higher”. The MIC / resistance result in series [5] (isolate CI-2, with 25 μM ZnSO4) is “fully resistant”; in series [5] (isolate CI-3, with 25 μM ZnSO4), “fully resistant”; in series [5] (isolate CI-1321, with Zn) it was “partially resistance”; in [5] (isolate CI-1323, with Zn), “resistant to bacitracin-Zn at all concentrations tested”; in [5] (isolate CI-1324, with Zn) it was “resistant to bacitracin-Zn at all concentrations tested”. Further, the MIC worked out at 10 µM in series [5] (isolate CI-4, with 25 μM ZnSO4); 10 µM in [5] (isolate CI-5, with 25 μM ZnSO4); 2 µM in series [5] (isolate CI-1320, with Zn); 2 µM in series [5] (isolate CI-1328, with Zn).

For `c1ccc(-c2ccc(C(c3ccccc3)n3ccnc3)cc2)cc1` (stereo not shown) [bifonazole], the “Activity class in Zn-dependent screening” value with MRSA strain USA300-LAC was “Zn-activated”.

Turning to `c1ccc(CN(CCN(Cc2ccccn2)Cc2ccccn2)Cc2ccccn2)nc1` [TPEN, N,N,N′,N′-tetrakis(2-pyridinylmethyl)-1,2-ethanediamine], in series [1], the “KD of high-affinity metal chelators” value is “picomolar to femtomolar range”.

As for `CN(C)CCOc1ccc(/C(=C(/CCCl)c2ccccc2)c2ccccc2)cc1` [toremifene citrate], in the series with MRSA strain USA300-LAC, the “Activity class in Zn-dependent screening” value is given as “Zn-activated”.

On to `CC[C@H](C)[C@H](N)C1=N[C@H](C(=O)N[C@@H](CC(C)C)C(=O)N[C@H](CCC(=O)O)C(=O)N[C@H](C(=O)N[C@H]2CCCCNC(=O)[C@H](CC(N)=O)NC(=O)[C@@H](CC(=O)O)NC(=O)[C@H](Cc3cnc[nH]3)NC(=O)[C@@H](Cc3ccccc3)NC(=O)[C@H]([C@@H](C)CC)NC(=O)[C@@H](CCCN)NC2=O)[C@@H](C)CC)CS1` [Bacitracin] ({Ileψ(thiazoline)Cys}-L[dE]IK[dOrn]I[dF]H[dD]N; lactam 4-C), for which, in the series with MRSA strain USA300-LAC, the “Activity class in Cu-dependent screening” value is listed as “not independent or Cu-dependent action” and the “Activity class in Zn-dependent screening” value was “Zn-dependent”. In series [2] (setting [7]), this compound displayed a KA of 9299 M⁻¹ and a dissociation constant Kd of 108 µM. In [2] (setting [8]), the KA was 738,233 M^−1; the Kd is 1.4 µM and 1.35 µM. Further, in [2] (setting [9]), the KA was 172,757 M^−1; the Kd was 5.7 µM and 5.79 µM. Also, the “Antibacterial activity (MIC) without metal” value in the series on USA300-LAC [3] is “completely inactive”. For the same compound, the MIC entry in the series on USA300-LAC [3] (with 25 μM CuSO4, 1×RPMI 1640, 20 h 37° C.) is reported as “could not be activated by Cu”. Besides, the “Zn concentration required for full activity / MIC” value in the series with USA300-LAC [4] amounted to 10 µM.

With `CN(C)Cc1ccc2c(Cl)cc(Cl)c(O)c2n1` [PTB2], in series [6], the “Zinc concentrations required for antibacterial activity” value is 400 to 600 µM.
